From US10555987B2, “GHRH agonists for the treatment of ischemic disorders” (UNIVERSITY OF MIAMI, priority 2012, dated 2020)
Non-standard residues stand in square brackets, D forms with d. Residues, ends and D or L forms follow the SMILES beside them. *: point of attachment. Desaminotyrosyl = O=C(CCc1ccc(O)cc1)*; hArg = N=C(N)NCCCC[C@H](N)C(=O)O; Agmatine = N=C(N)NCCCCN*; Nle = CCCC[C@H](N)C(=O)O; Orn = NCCC[C@H](N)C(=O)O; Abu = CC[C@H](N)C(=O)O; Aoc = NCCCCCCCC(=O)O

Target: T1, GHRH receptor (Homo sapiens, UniProt Q02643)
T1 sequence (Q02643 23-423): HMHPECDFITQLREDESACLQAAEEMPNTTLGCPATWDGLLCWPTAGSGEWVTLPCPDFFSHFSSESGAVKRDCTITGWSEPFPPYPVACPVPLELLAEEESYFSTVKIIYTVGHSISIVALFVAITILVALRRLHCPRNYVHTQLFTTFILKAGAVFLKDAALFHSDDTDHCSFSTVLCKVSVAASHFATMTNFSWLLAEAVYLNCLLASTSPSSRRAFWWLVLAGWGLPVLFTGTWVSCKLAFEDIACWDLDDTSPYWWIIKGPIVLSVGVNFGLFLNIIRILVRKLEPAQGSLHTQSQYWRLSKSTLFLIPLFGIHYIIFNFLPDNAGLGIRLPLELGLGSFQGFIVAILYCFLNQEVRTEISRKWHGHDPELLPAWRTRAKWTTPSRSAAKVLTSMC
Assay: GHRH receptor binding, competition with 125I-labeled [His1,Nle27]hGHRH(1-32)NH2, human pituitary membrane homogenates (Table 6)
Design: Normal human pituitaries were purchased from the National Hormone and Peptide Program; tissue National Hormone and Peptide Program (A.F. Parlow, Harbor-UCLA Medical Center, Torrance, Calif.); host or cells: normal human pituitary, membrane fraction
Details: for Relative affinity (Binding potency) vs GHRH: GHRH(1-29) = 1, Table 6; for Relative affinity (Binding potency) vs JI-38: JI-38 = 1, Table 6
Text: Normal human pituitaries were purchased from the National Hormone and Peptide Program (A.F. Parlow, Los Angeles, County Harbor-UCLA Medical Center, Torrance, Calif.).

| SMILES | Relative affinity (Binding potency) vs GHRH | Relative affinity (Binding potency) vs JI-38 |
| --- | --- | --- |
| CCCC[C@H](NC(=O)[C@@H](NC(=O)[C@H](CC(=O)O)NC(=O)[C@H](CCC(N)=O)NC(=O)[C@H](CC(C)C)NC(=O)[C@H](CC(C)C)NC(=O)[C@H](CCCN)NC(=O)[C@H](CCCNC(=N)N)NC(=O)[C@H](C)NC(=O)[C@H](CO)NC(=O)[C@H](CC(C)C)NC(=O)[C@H](CCC(N)=O)NC(=O)[C@H](CC)NC(=O)[C@H](CC(C)C)NC(=O)[C@@H](NC(=O)[C@H](CCCN)NC(=O)[C@H](CCCNC(=N)N)NC(=O)[C@H](Cc1ccc(O)cc1)NC(=O)[C@H](CO)NC(=O)[C@@H](NC(=O)[C@@H](NC(=O)[C@H](Cc1ccccc1)NC(=O)[C@@H](NC(=O)[C@H](C)NC(=O)[C@H](CC(=O)O)NC(=O)[C@H](C)NC(=O)CCc1ccc(O)cc1)[C@@H](C)CC)[C@@H](C)O)[C@@H](C)O)C(C)C)[C@@H](C)CC)C(=O)N[C@@H](CC(=O)O)C(=O)NCCCCNC(=N)N [JI-36, reference compound] (Desaminotyrosyl-ADAIFTTSYR[Orn]VL[Abu]QLSAR[Orn]LLQDI[Nle]D-Agmatine; N-terminus and C-terminus assumed) | 3.25 |  |
| CCCC[C@H](NC(=O)[C@@H](NC(=O)[C@H](CC(=O)O)NC(=O)[C@H](CCC(N)=O)NC(=O)[C@H](CC(C)C)NC(=O)[C@H](CC(C)C)NC(=O)[C@H](CCCN)NC(=O)[C@H](CCCNC(=N)N)NC(=O)[C@H](C)NC(=O)[C@H](CO)NC(=O)[C@H](CC(C)C)NC(=O)[C@H](CCC(N)=O)NC(=O)[C@H](CC)NC(=O)[C@H](CC(C)C)NC(=O)[C@@H](NC(=O)[C@H](CCCN)NC(=O)[C@H](CCCNC(=N)N)NC(=O)[C@H](Cc1ccc(O)cc1)NC(=O)[C@H](CO)NC(=O)[C@H](CCC(N)=O)NC(=O)[C@@H](NC(=O)[C@H](Cc1ccccc1)NC(=O)[C@@H](NC(=O)[C@H](C)NC(=O)[C@H](CC(=O)O)NC(=O)[C@@H](C)NC(=O)CCc1ccc(O)cc1)[C@@H](C)CC)[C@@H](C)O)C(C)C)[C@@H](C)CC)C(=O)N[C@@H](CC(=O)O)C(=O)N[C@@H](CCCNC(=N)N)C(=O)NCCCCCCCC(N)=O [Peptide P-21304, [Dat^1, D-Ala^2, Gln^8, Orn^12, Abu^15, Orn^21, Nle^27, Asp^28, Amc^30]hGHRH(1-30)NH2] (Desaminotyrosyl-[dA]DAIFTQSYR[Orn]VL[Abu]QLSAR[Orn]LLQDI[Nle]DR[Aoc]-NH2) | 74.0 | 24.4 |
| CCCC[C@H](NC(=O)[C@@H](NC(=O)[C@H](CC(=O)O)NC(=O)[C@H](CCC(N)=O)NC(=O)[C@H](CC(C)C)NC(=O)[C@H](CC(C)C)NC(=O)[C@H](CCCN)NC(=O)[C@H](CCCNC(=N)N)NC(=O)[C@H](C)NC(=O)[C@H](CO)NC(=O)[C@H](CC(C)C)NC(=O)[C@H](CCC(N)=O)NC(=O)[C@H](CC)NC(=O)[C@H](CC(C)C)NC(=O)[C@@H](NC(=O)[C@H](CCCN)NC(=O)[C@H](CCCNC(=N)N)NC(=O)[C@H](Cc1ccc(O)cc1)NC(=O)[C@H](CO)NC(=O)[C@H](CC(N)=O)NC(=O)[C@@H](NC(=O)[C@H](Cc1ccccc1)NC(=O)[C@@H](NC(=O)[C@H](C)NC(=O)[C@H](CC(=O)O)NC(=O)[C@@H](C)NC(=O)CCc1ccc(O)cc1)[C@@H](C)CC)[C@@H](C)O)C(C)C)[C@@H](C)CC)C(=O)N[C@@H](CC(=O)O)C(=O)N[C@@H](CCCNC(=N)N)C(=O)N[C@@H](CCCCNC(=N)N)C(N)=O [Peptide P-23252, [Dat^1-D-Ala^2, Orn^12, Abu^15, Orn^21, Nle^27, Asp^28, Har^30]hGHRH(1-30)NH^2] (Desaminotyrosyl-[dA]DAIFTNSYR[Orn]VL[Abu]QLSAR[Orn]LLQDI[Nle]DR[hArg]-NH2) | 42.3 | 13.9 |
| CCCC[C@H](NC(=O)[C@@H](NC(=O)[C@H](CC(=O)O)NC(=O)[C@H](CCC(N)=O)NC(=O)[C@H](CC(C)C)NC(=O)[C@H](CC(C)C)NC(=O)[C@H](CCCN)NC(=O)[C@H](CCCNC(=N)N)NC(=O)[C@H](C)NC(=O)[C@H](CO)NC(=O)[C@H](CC(C)C)NC(=O)[C@H](CCC(N)=O)NC(=O)[C@H](CC)NC(=O)[C@H](CC(C)C)NC(=O)[C@@H](NC(=O)[C@H](CCCN)NC(=O)[C@H](CCCNC(=N)N)NC(=O)[C@H](Cc1ccc(O)cc1)NC(=O)[C@H](CO)NC(=O)[C@@H](NC(=O)[C@@H](NC(=O)[C@H](Cc1ccccc1)NC(=O)[C@@H](NC(=O)[C@H](C)NC(=O)[C@H](CC(=O)O)NC(=O)[C@@H](C)NC(=O)CCc1ccc(O)cc1)[C@@H](C)CC)[C@@H](C)O)[C@@H](C)O)C(C)C)[C@@H](C)CC)C(=O)N[C@@H](CC(=O)O)C(=O)N[C@@H](CCCNC(=N)N)C(=O)N[C@@H](CCCCNC(=N)N)C(N)=O [Peptide P-23254, [Dat^1, D-Ala^2, Thr^8, Orn^12, Abu^15, Orn^21, Nle^27, Asp^28, Har^30]hGHRH(1-30)NH2] (Desaminotyrosyl-[dA]DAIFTTSYR[Orn]VL[Abu]QLSAR[Orn]LLQDI[Nle]DR[hArg]-NH2) | 84.5 | 27.8 |
| CCCC[C@H](NC(=O)[C@@H](NC(=O)[C@H](CC(=O)O)NC(=O)[C@H](CCC(N)=O)NC(=O)[C@H](CC(C)C)NC(=O)[C@H](CC(C)C)NC(=O)[C@H](CCCN)NC(=O)[C@H](CCCNC(=N)N)NC(=O)[C@H](C)NC(=O)[C@H](CO)NC(=O)[C@H](CC(C)C)NC(=O)[C@H](CCC(N)=O)NC(=O)[C@H](CC)NC(=O)[C@H](CC(C)C)NC(=O)[C@@H](NC(=O)[C@H](CCCN)NC(=O)[C@H](CCCNC(=N)N)NC(=O)[C@H](Cc1ccc(O)cc1)NC(=O)[C@H](CO)NC(=O)[C@H](C)NC(=O)[C@@H](NC(=O)[C@H](Cc1ccccc1)NC(=O)[C@@H](NC(=O)[C@H](C)NC(=O)[C@H](CC(=O)O)NC(=O)[C@@H](C)NC(=O)CCc1ccc(O)cc1)[C@@H](C)CC)[C@@H](C)O)C(C)C)[C@@H](C)CC)C(=O)N[C@@H](CC(=O)O)C(=O)N[C@@H](CCCNC(=N)N)C(=O)N[C@@H](CCCCNC(=N)N)C(N)=O [Peptide P-23256, [Dat^1, D-Ala^2, Ala^8, Orn^12, Abu^15, Orn^21, Nle^27, Asp^28, Har^30]hGHRH(1-30)NH2] (Desaminotyrosyl-[dA]DAIFTASYR[Orn]VL[Abu]QLSAR[Orn]LLQDI[Nle]DR[hArg]-NH2) | 148.0 | 48.7 |
